# Measured values reported in patent US10550124B2, “Atropisomerism for increased kinase inhibitor selectivity” (SAN DIEGO STATE UNIVERSITY RESEARCH FOUNDATION, priority 2015, dated 2020).
# Tests used:
# Format in all cases: biochemical
# [1] = biological target: Yes (Homo sapiens, UniProt P07947); assay: Z′-LYTE kinase inhibition assay, Yes; conditions: for % inhibition: average of 2 runs
# Description: (§1) All samples were sent out to Life Technologies to obtain kinase inhibition data. A brief description of the assays and analyses are included below.
# (§2) Assay Theory (SelectScreen® Kinase Profiling Services (Life Technologies, Madison, Wis. USA). The Z′-LYTE® biochemical assay employs a fluorescence-based, coupled-enzyme format and is based on the differential sensitivity of phosphorylated and non-phosphorylated peptides to proteolytic cleavage. The peptide substrate is labeled with two fluorophores one at each end—that make up a FRET pair.
# (§3) In the primary reaction, the kinase transfers the gamma-phosphate of ATP to a single tyrosine, serine or threonine residue in a synthetic FRET-peptide. In the secondary reaction, a site-specific protease recognizes and cleaves non-phosphorylated FRET-peptides.
# (§4) Phosphorylation of FRET-peptides suppresses cleavage by the Development Reagent. Cleavage disrupts FRET between the donor (i.e., coumarin) and acceptor (i.e., fluorescein) fluorophores on the FRET-peptide, whereas uncleaved, phosphorylated FRET-peptides maintain FRET. A ratiometric method, which calculates the ratio (the Emission Ratio) of donor emission to acceptor emission after excitation of the donor fluorophore at 400 nm, is used to quantitate reaction progress, as shown in the equation below: […]
# (§5) A significant benefit of this ratiometric method for quantitating reaction progress is the elimination of well-to-well variations in FRET-peptide concentration and signal intensities. As a result, the assay yields very high Z′-factor values (>0.7) at a low percent phosphorylation. Both cleaved and uncleaved FRET-peptides contribute to the fluorescence signals and therefore to the Emission Ratio. The extent of phosphorylation of the FRET-peptide can be calculated from the Emission Ratio. The Emission Ratio will remain low if the FRET-peptide is phosphorylated (i.e., no kinase inhibition) and will he high if the FRET-peptide is non-phosphorylated (i.e., kinase inhibition).
# [2] = biological target: Her-2 (Homo sapiens, UniProt P04626); assay: Z′-LYTE kinase inhibition assay, Her-2; conditions: average of 2 runs
# Description: as §1, §2, §3, §4, §5
# [3] = biological target: Lyn (Homo sapiens, UniProt P07948); assay: Z′-LYTE kinase inhibition assay, Lyn; conditions: for % inhibition: average of 2 runs
# Description: as §1, §2, §3, §4, §5
# [4] = biological target: Kit (Homo sapiens, UniProt P10721); assay: Z′-LYTE kinase inhibition assay, Kit; conditions: for % inhibition: average of 2 runs
# Description: as §1, §2, §3, §4, §5
# [5] = biological target: EGFR (Homo sapiens, UniProt P00533); assay: Z′-LYTE kinase inhibition assay, EGFR; conditions: for % inhibition: average of 2 runs
# Description: as §1, §2, §3, §4, §5
# [6] = biological target: BTK (Homo sapiens, UniProt Q06187); assay: Z′-LYTE kinase inhibition assay, BTK; conditions: for % inhibition: average of 2 runs
# Chain of BTK (Q06187 whole entry): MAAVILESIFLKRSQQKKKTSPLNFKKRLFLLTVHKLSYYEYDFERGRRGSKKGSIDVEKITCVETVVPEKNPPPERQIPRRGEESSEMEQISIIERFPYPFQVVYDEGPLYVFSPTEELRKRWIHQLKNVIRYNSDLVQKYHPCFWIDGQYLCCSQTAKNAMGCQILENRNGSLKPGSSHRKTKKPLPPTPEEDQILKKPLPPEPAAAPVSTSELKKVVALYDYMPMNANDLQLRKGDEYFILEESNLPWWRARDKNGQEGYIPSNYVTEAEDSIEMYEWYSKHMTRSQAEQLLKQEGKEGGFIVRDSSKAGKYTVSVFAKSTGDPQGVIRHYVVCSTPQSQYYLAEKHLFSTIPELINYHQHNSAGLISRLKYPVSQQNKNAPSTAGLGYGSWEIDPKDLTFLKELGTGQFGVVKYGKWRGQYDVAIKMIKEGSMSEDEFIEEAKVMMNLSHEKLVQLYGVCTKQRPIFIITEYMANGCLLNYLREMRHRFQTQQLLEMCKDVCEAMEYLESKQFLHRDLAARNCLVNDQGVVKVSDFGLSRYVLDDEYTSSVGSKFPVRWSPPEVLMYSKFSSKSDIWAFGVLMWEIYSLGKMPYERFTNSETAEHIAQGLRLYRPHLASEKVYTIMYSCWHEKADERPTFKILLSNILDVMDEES
# Description: as §1, §2, §3, §4, §5
# [7] = biological target: Abl (Homo sapiens, UniProt P00519); assay: Z′-LYTE kinase inhibition assay, Abl; conditions: for % inhibition: average of 2 runs
# Chain of Abl (P00519 whole entry): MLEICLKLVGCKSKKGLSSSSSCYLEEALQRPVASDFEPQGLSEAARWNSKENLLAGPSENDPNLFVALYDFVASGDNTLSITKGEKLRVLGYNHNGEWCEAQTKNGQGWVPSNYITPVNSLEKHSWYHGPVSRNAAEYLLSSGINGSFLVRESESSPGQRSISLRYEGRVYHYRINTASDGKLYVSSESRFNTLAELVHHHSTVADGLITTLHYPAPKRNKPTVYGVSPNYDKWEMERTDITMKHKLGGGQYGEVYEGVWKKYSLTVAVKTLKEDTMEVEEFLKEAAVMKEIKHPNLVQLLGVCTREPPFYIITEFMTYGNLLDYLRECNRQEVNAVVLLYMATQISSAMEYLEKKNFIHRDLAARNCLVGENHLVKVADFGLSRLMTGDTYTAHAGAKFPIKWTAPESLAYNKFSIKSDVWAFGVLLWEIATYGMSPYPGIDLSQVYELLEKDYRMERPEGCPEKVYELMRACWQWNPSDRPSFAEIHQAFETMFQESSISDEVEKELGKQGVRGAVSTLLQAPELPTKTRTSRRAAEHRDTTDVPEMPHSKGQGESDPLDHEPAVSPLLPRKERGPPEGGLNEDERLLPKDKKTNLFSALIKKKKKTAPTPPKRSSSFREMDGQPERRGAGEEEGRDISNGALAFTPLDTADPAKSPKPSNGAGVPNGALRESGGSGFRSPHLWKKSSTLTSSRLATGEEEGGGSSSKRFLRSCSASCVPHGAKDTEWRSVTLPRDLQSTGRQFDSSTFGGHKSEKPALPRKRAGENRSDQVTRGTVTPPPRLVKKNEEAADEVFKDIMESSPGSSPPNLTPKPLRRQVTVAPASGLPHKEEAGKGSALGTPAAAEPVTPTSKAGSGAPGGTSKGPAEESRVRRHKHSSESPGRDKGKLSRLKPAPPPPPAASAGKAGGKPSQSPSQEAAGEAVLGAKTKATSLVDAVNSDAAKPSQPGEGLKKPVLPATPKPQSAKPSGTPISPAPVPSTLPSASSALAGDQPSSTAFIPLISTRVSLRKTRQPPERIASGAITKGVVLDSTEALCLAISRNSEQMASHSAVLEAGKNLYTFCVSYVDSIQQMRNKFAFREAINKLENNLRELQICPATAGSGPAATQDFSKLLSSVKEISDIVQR
# Description: as §1, §2, §3, §4, §5
# [8] = biological target: Blk (Homo sapiens, UniProt P51451); assay: Z′-LYTE kinase inhibition assay, Blk; conditions: for % inhibition: average of 2 runs
# Chain of Blk (P51451 whole entry): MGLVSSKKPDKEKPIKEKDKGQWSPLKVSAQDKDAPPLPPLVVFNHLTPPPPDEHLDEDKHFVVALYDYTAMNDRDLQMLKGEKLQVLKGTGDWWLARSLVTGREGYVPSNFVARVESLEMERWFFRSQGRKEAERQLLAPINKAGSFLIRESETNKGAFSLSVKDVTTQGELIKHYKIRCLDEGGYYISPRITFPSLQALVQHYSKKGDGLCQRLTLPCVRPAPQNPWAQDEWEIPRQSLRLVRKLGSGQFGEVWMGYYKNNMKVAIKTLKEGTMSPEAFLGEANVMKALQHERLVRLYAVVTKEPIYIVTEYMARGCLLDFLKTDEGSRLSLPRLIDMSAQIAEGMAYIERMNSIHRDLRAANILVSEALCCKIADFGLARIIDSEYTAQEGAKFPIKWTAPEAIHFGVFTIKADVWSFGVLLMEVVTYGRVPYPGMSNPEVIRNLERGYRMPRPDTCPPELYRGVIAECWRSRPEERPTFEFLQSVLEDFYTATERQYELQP
# Description: as §1, §2, §3, §4, §5
# [9] = biological target: Fyn (Homo sapiens, UniProt P06241); assay: Z′-LYTE kinase inhibition assay, Fyn; conditions: for % inhibition: average of 2 runs
# Description: as §1, §2, §3, §4, §5
# [10] = biological target: pdgfr-a (Homo sapiens, UniProt P16234); assay: Z′-LYTE kinase inhibition assay, pdgfr-a; conditions: for % inhibition: average of 2 runs
# Description: as §1, §2, §3, §4, §5
# [11] = biological target: pdgfr-b (Homo sapiens, UniProt P09619); assay: Z′-LYTE kinase inhibition assay, pdgfr-b; conditions: for % inhibition: average of 2 runs
# Chain of pdgfr-b (P09619 33-1106): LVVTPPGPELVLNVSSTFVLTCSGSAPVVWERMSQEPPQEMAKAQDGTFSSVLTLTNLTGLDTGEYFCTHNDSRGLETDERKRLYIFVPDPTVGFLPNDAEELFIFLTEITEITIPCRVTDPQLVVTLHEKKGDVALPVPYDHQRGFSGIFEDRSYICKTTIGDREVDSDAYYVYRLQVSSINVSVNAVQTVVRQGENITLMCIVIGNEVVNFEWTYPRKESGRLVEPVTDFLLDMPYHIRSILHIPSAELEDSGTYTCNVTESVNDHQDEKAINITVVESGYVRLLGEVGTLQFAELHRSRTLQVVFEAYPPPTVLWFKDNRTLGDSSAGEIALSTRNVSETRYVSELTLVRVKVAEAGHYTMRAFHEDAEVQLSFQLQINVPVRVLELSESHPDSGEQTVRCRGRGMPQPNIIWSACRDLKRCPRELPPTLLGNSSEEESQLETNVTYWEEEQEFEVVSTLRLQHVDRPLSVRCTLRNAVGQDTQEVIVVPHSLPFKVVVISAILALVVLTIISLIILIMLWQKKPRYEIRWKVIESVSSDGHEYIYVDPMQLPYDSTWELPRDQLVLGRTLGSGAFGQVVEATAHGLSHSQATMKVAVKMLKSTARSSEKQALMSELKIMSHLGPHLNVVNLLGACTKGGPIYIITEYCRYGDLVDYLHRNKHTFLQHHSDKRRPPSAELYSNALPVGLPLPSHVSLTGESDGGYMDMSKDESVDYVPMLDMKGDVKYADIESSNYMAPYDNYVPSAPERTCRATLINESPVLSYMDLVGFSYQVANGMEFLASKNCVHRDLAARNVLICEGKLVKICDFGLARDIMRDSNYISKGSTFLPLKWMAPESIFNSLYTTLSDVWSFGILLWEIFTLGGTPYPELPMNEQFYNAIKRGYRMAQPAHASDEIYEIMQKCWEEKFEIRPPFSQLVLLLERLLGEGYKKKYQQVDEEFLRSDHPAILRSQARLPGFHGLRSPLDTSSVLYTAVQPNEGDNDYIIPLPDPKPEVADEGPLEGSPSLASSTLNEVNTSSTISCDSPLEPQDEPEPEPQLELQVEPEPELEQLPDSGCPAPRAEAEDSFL
# Description: as §1, §2, §3, §4, §5
# [12] = biological target: Hck (Homo sapiens, UniProt P08631); assay: Z′-LYTE kinase inhibition assay, Hck; conditions: for % inhibition: average of 2 runs
# Description: as §1, §2, §3, §4, §5
# [13] = biological target: CSK (Homo sapiens, UniProt P41240); assay: Z′-LYTE kinase inhibition assay, CSK; conditions: for % inhibition: average of 2 runs
# Description: as §1, §2, §3, §4, §5
# [14] = biological target: Fgr (Homo sapiens, UniProt P09769); assay: Z′-LYTE kinase inhibition assay, Fgr; conditions: for % inhibition: average of 2 runs
# Chain of Fgr (P09769 whole entry): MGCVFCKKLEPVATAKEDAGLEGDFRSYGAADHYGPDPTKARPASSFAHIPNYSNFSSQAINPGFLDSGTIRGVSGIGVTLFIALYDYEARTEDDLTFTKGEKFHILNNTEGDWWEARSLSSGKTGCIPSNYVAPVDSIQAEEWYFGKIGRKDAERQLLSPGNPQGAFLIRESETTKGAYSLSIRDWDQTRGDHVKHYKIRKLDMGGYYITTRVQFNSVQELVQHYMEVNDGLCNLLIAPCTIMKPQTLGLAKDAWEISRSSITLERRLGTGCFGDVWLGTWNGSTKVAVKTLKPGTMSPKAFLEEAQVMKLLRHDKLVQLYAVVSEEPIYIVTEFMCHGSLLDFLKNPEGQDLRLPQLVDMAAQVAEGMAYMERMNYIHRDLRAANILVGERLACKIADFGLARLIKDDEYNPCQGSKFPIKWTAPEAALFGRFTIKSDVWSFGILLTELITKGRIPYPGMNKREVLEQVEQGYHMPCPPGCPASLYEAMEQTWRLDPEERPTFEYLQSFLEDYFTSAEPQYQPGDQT
# Description: as §1, §2, §3, §4, §5
# [15] = biological target: Alk (Homo sapiens, UniProt Q9UM73); assay: Z′-LYTE kinase inhibition assay, Alk; conditions: for % inhibition: average of 2 runs
# Description: as §1, §2, §3, §4, §5
# [16] = biological target: Lck (Homo sapiens, UniProt P06239); assay: Z′-LYTE kinase inhibition assay, Lck; conditions: for % inhibition: average of 2 runs
# Description: as §1, §2, §3, §4, §5
# [17] = biological target: Src kinase (Homo sapiens, UniProt P12931); assay: Z′-LYTE kinase inhibition assay, Src
# Description: Based on the observed stereochemical stabilities, we chose 1f, 2e, and 2f for further study and obtained inhibition data against Src kinase from Life Technologies' Z′-LYTE™ kinase assay (Scheme 3).
# as §1, §2, §3, §4, §5
# [18] = system: panel of 18 tyrosine kinases; assay: Kinase inhibitor profiling across a panel of tyrosine kinases (selectivity); conditions: for S(40%): number of kinases inhibited greater than 40% divided by number of kinases tested (including Src)
# Description: In order to probe the effect of atropisomeric conformation on kinase selectivity we subjected 1f, 2e, and 2f to kinase inhibitor profiling across a panel of tyrosine kinases at 1000 nM and 5000 nM (data for 2e shown in Scheme 4 below).
# To analyze each analog's selectivity across the panel we turned to selectivity scores (Davis et al., Nat. Biotechnol. 2011, 29, 1046-51), simply the number of kinases inhibited above a certain threshold divided by the number of kinases evaluated. […] For example at 1000 nM 2e-(R) yielded an S(40%) of 0.11 while 2e-(S) gave an S(40%) of 0.16. […] Differences in selectivity between 2e-(R) and 2e-(S) at 5000 nM (4.5 times the IC50 of 2e-(S) toward Src) and for 5 at 1000 nM (6.25 times the IC50 of 5 toward Src) can be viewed graphically across tyrosine kinases (FIG. 3). Importantly, similar trends were also observed across each of the atropisomeric series tested.
# as §1, §2, §3, §4, §5
# [19] = biological target: Ret (Homo sapiens, UniProt P07949); assay: Z′-LYTE kinase inhibition assay, Ret; conditions: for % inhibition: average of 2 runs
# Chain of Ret (P07949 29-1114): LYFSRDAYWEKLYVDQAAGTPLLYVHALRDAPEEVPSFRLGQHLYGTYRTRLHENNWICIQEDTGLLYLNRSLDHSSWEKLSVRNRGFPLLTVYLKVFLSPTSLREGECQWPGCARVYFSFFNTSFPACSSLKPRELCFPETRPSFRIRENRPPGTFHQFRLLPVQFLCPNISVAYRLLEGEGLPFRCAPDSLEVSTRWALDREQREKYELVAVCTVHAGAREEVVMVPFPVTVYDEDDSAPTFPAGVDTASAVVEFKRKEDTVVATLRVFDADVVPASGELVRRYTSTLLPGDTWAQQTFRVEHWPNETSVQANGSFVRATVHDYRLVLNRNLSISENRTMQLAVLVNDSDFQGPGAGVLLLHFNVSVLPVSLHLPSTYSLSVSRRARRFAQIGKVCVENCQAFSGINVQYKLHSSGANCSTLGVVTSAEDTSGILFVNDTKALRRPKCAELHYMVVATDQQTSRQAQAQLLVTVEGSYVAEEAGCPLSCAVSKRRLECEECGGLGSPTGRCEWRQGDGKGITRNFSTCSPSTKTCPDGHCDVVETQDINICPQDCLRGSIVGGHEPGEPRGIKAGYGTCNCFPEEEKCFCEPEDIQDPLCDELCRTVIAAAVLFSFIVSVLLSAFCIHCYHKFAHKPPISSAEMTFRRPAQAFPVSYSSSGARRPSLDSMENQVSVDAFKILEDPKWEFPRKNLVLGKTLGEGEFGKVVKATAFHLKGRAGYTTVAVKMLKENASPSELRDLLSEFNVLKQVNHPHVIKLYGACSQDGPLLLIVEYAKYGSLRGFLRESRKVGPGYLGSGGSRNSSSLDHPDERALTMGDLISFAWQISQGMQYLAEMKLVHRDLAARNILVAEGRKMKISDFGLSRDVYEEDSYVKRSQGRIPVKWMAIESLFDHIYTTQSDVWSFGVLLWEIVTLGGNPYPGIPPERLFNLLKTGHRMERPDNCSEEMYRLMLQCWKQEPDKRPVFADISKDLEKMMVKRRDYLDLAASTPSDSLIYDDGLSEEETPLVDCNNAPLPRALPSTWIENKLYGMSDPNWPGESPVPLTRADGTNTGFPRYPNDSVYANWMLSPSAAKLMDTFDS
# Description: as §1, §2, §3, §4, §5
# [20] = % inhibition 2e-(S)/% inhibition 2e-(R) at 5000 nM
smiles,measurement,setting,value
"COc1ccc(Cl)c(-c2c(Cl)n(C(C)(C)C)c3ncnc(N)c23)c1 (single isomer, unassigned) [2e-(S), 7-(tert-butyl)-6-chloro-5-(2-chloro-5-methoxyphenyl)-7H-pyrrolo[2,3d]pyrimidin-4-amine]",IC50 of Kinase/IC50 of Yes,[1]; Yes relative to Yes,1
same,% inhibition,"[1]; Yes, 1000 nM",53%
same,% inhibition,"[1]; Yes, 5000 nM, 5 µM",77%
same,SIR (5000 nM),"[1]; Yes, % inhibition 2e-(S)/% inhibition 2e-(R) at 5000 nM",0.97
same,IC50,"[1]; Yes, error is standard deviation",727 nM
same,% inhibition,"[2]; 1000 nM, 1 µM",−7%
same,% inhibition,[2]; 5000 nM,0%
same,% inhibition,"[3]; 1000 nM, 1 µM",36%
same,% inhibition,"[3]; 5000 nM, 5 µM",75%
same,SIR (5000 nM),[3]; [20],1.31
same,% inhibition,"[4]; 1000 nM, 1 µM",18%
same,% inhibition,"[4]; 5000 nM, 5 µM",36%
same,SIR (5000 nM),[4]; [20],1.38
same,IC50 of Kinase/IC50 of Yes,[5]; EGFR relative to Yes,>10.0
same,% inhibition,"[5]; EGFR, 1000 nM, 1 µM",10%
same,% inhibition,"[5]; EGFR, 5000 nM, 5 µM",21%
same,IC50,"[5]; EGFR, error is standard deviation",> 10000 nM
same,% inhibition,"[6]; 1000 nM, 1 µM",18%
same,% inhibition,"[6]; 5000 nM, 5 µM",54%
same,SIR (5000 nM),[6]; [20],1.86
same,IC50 of Kinase/IC50 of Yes,[7]; Abl relative to Yes,1.96
same,% inhibition,"[7]; Abl, 1000 nM, 1 µM",36%
same,% inhibition,"[7]; Abl, 5000 nM",67%
same,% inhibition,"[7]; Abl, 5000 nM, 5 µM",67%
same,SIR (5000 nM),"[7]; Abl, % inhibition 2e-(S)/% inhibition 2e-(R) at 5000 nM",2.57
same,IC50,"[7]; Abl, error is standard deviation",1430 nM
same,% inhibition,"[8]; 1000 nM, 1 µM",21%
same,% inhibition,"[8]; 5000 nM, 5 µM",47%
same,SIR (5000 nM),[8]; [20],1.46
same,% inhibition,"[9]; 1000 nM, 1 µM",26%
same,% inhibition,"[9]; 5000 nM, 5 µM",56%
same,SIR (5000 nM),[9]; [20],1.27
same,% inhibition,[10]; 1000 nM,3%
same,% inhibition,"[10]; 5000 nM, 5 µM",13%
same,SIR (5000 nM),[10]; [20],1.63
same,% inhibition,"[11]; 1000 nM, 1 µM",13%
same,% inhibition,"[11]; 5000 nM, 5 µM",16%
same,SIR (5000 nM),[11]; [20],1.23
same,% inhibition,"[12]; 1000 nM, 1 µM",32%
same,% inhibition,"[12]; 5000 nM, 5 µM",50%
same,SIR (5000 nM),[12]; [20],1.25
same,% inhibition,"[13]; 1000 nM, 1 µM",19%
same,% inhibition,"[13]; 5000 nM, 5 µM",45%
same,SIR (5000 nM),[13]; [20],1.28
same,% inhibition,"[14]; 1000 nM, 1 µM",58%
same,% inhibition,"[14]; 5000 nM, 5 µM",81%
same,SIR (5000 nM),[14]; [20],1.05
same,% inhibition,"[15]; 1000 nM, 1 µM",5%
same,% inhibition,"[15]; 5000 nM, 5 µM",7%
same,SIR (5000 nM),[15]; [20],0.38
same,% inhibition,"[16]; 1000 nM, 1 µM",26%
same,% inhibition,"[16]; 5000 nM, 5 µM",54%
same,SIR (5000 nM),[16]; [20],1.05
same,IC50 of Kinase/IC50 of Yes,[17]; Src relative to Yes,1.64
same,IC50,"[17]; Src, error is standard deviation",1190 nM
same,S(40%),[18]; 1000 nM,0.16
same,S(40%),[18]; 5000 nM,0.61
same,increase of 5's inherent selectivity,[18]; less potent towards Ret,~8 fold
same,IC50 of Kinase/IC50 of Yes,[19]; Ret relative to Yes,10.53
same,% inhibition,"[19]; Ret, 1000 nM, 1 µM",14%
same,% inhibition,"[19]; Ret, 5000 nM",32%
same,% inhibition,"[19]; Ret, 5000 nM, 5 µM",32%
same,SIR (5000 nM),"[19]; Ret, % inhibition 2e-(S)/% inhibition 2e-(R) at 5000 nM",0.44
same,IC50,"[19]; Ret, error is standard deviation",7660 nM
